Results as given in patent publication US4029780A, “3-Piperazinyl 1,2,4-benzothiadiazine 1,1-dioxide derivatives their compositions and method of use” (Dainippon Pharmaceutical Co., Ltd., priority 1974, dated 1977).

Columns and labels:
[1] = system: Spontaneously hypertensive male rats; test: Antihypertensive activity in spontaneously hypertensive rats (oral, 10 successive days); type: in vivo, rat; settings: 10 mg/kg/day p.o.
Experimental: Spontaneously hypertensive male rats [SHR, Jap. Circ. J. 27, 282-93 (1963)] being 18-23 weeks of age and having systolic blood pressure levels of 170-190 mmHg were used. The test compounds were each suspended in a 0.5% aqueous tragacanth solution and administered orally in a dose of 10 mg/kg/day by stomach tube to SHR once a day for 10 successive days. The blood pressure of conscious SHR was measured prior to dosing and 5 hours after administration. It was also measured once daily over a period of 7 days after the end of the treatment period. The measurement of the blood pressure was made by a plethysmographtail method [Jap. Circ. J. 27, 282-93 (1963)].

[2] = cited from earlier work
[3] = well known; cited from earlier work
Male Wistar rats [4] = test: Effect on blood glucose (b), intraperitoneal; settings: 300 mg/kg i.p.
Experimental: (b) Male Wistar rats weighing 260-285 g were used. […] 4 ml/kg of the above solution of each test compound was intraperitoneally administered to each animal. The blood samples were taken prior to dosing and 1, 3 and 6 hours after the administration and the plasma glucose levels were determined in a similar manner to that described in (a).

Male Wistar rats [5] = test: Effect on blood glucose (a), oral; settings: 300 mg/kg p.o.
Experimental: (a) Male Wistar rats weighing 190-210 g were used. Each test compound was suspended in a concentration of 150 mg/ml in a 0.5% aqueous tragacanth solution and orally administered at a dose of 300 mg/kg by the stomach tube.

Male Wistar rats [6] = test: Effect on urine volume and electrolyte excretion; type: in vivo, rat; settings: 100 mg/kg p.o.; for Cl- / K+ / Na+ / Na+/K+: urinary excretion over 5 hours
Experimental: Male Wistar rats weighing 220 to 260 g were used. Each test compound was suspended in a solution of tragacanth dissolved in a concentration of 0.5% in a 0.9% saline solution so that the volume of the resulting suspension to be administered would be always 25 ml/Kg. The test compounds were administered orally by the stomach tube to the animals at the prescribed doses. The animals were then placed in a metabolic cage and the urine was collected over a period of 5 hours. The total amount of sodium, potassium and chloride excreted was determined by Auto-Analyzer, made by Technicon Instruments Corporation.

[7] = Toxicity (LD50), JCL-ICR mice; settings: mouse, in vivo
Source text: (§1) Male and female JCL-ICR strain mice, weighing 20-30 g (each group: 8 mice), and male and female JCL-SD strain rats, weighing 150-250 g (each group: 8 rats) were used.

[8] = Toxicity (LD50), JCL-SD rats; settings: rat, in vivo
Source text: as §1

[9] = system: Spontaneously hypertensive rats; test: Glucose tolerance test; settings: 300 mg/kg p.o. once a day, 22 days; 1.25 g/kg oral glucose
Experimental: Spontaneously hypertensive rats weighing 360 to 400 g were used. Each of the test compounds was suspended in a 0.5% aqueous tragacanth solution, and orally administered to the animals at a dose of 300 mg/kg once a day for 22 consecutive days. The control group was given only the 0.5% aqueous tragacanth solution. After the final administration, the animals were caused to fast for 20 hours, and subjected to a glucose tolerance test by an oral application of 1.25 g/kg of glucose.

[10] = day 0, 5 hours after administration
[11] = day 2, 5 hours after administration
[12] = day 4, 5 hours after administration
[13] = day 6, 5 hours after administration
[14] = day 8, 5 hours after administration
[15] = day 10, 24 hours after the final treatment
[16] = day 14, 120 hours after the final treatment
[17] = iv, female, dissolved with stoichiometric NaOH, 95% confidence limits in parentheses
[18] = iv, male, dissolved with stoichiometric NaOH, 95% confidence limits in parentheses
[19] = po, female, suspended in 0.5% tragacanth
[20] = po, male, suspended in 0.5% tragacanth
[21] = sc, female, dissolved with stoichiometric NaOH
[22] = sc, male, dissolved with stoichiometric NaOH

With CC1=Nc2ccc(Cl)cc2S(=O)(=O)N1 [Compound 3, 7-chloro-3-methyl-2H-1,2,4-benzothiadiazine 1,1-dioxide] as the compound, how does the Blood pressure [1, 10] read?
The Blood pressure was 155 mm Hg.

What about the Blood pressure ([1]; day 0, prior to dosing (0)) of the same compound?
Its Blood pressure is 173 mm Hg.

And the Blood pressure [1, 11]?
The Blood pressure was 146 mm Hg.

And the Blood pressure ([1]; day 2, prior to dosing (0))?
Its Blood pressure is 166 mm Hg.

What about the Blood pressure [1, 12] of the same compound?
Its Blood pressure is 151 mm Hg.

What about the Blood pressure ([1]; day 4, prior to dosing (0)) of the same compound?
The Blood pressure was 159 mm Hg.

And the Blood pressure [1, 13]?
Its Blood pressure is 143 mm Hg.

What about the Blood pressure ([1]; day 6, prior to dosing (0)) of the same compound?
Its Blood pressure is 150 mm Hg.

What about the Blood pressure [1, 14] of the same compound?
Its Blood pressure is 137 mm Hg.

What about the Blood pressure ([1]; day 8, prior to dosing (0)) of the same compound?
Its Blood pressure is 153 mm Hg.

What about the Blood pressure [1, 15] of the same compound?
Its Blood pressure is 144 mm Hg.

And the Blood pressure [1, 16]?
Its Blood pressure is 175 mm Hg.

And the Diuretic action ([2]; known)?
Its Diuretic action is “no diuretic action”.

And the Antidiuretic activity ([2]; literature)?
Its Antidiuretic activity is “antidiuretic effects (i.e., sodium and water retaining effect)”.

And the Hyperglycemic effects [3]?
Its Hyperglycemic effects is “marked hyperglycemic effects”.

And the Blood glucose (Male Wistar rats [4]; 0 hr (prior to dosing))?
Its Blood glucose is 100 mg/dL.

And the Blood glucose (Male Wistar rats [4]; 1 hr)?
The Blood glucose was 361 mg/dL.

What about the Blood glucose (Male Wistar rats [4]; 3 hr) of the same compound?
The Blood glucose was 599 mg/dL.

And the Blood glucose (Male Wistar rats [4]; 6 hr)?
Its Blood glucose is 675 mg/dL.

And the Blood glucose (Male Wistar rats [5]; 0 hr (prior to dosing))?
The Blood glucose was 111 mg/dL.

And the Blood glucose (Male Wistar rats [5]; 1 hr)?
Its Blood glucose is 126 mg/dL.

What about the Blood glucose (Male Wistar rats [5]; 3 hr) of the same compound?
The Blood glucose was 125 mg/dL.

What about the Blood glucose (Male Wistar rats [5]; 6 hr) of the same compound?
The Blood glucose was 146 mg/dL.

What about the Blood glucose (Male Wistar rats [5]; 10 hr) of the same compound?
The Blood glucose was 148 mg/dL.

And the Cl- (Male Wistar rats [6])?
Its Cl- is 0.20 mEq.

And the “K+” value (Male Wistar rats [6])?
The value was 0.37 mEq.

What about the “Na+” value (Male Wistar rats [6]) of the same compound?
The value was 0.17 mEq.

What about the “Na+/K+” value (Male Wistar rats [6]) of the same compound?
Its value is 0.51.

With CN1CCN(C2=Nc3ccc(Cl)cc3S(=O)(=O)N2)CC1 [Compound A, 7-chloro-3-(4-methyl-1-piperazinyl)-2H-1,2,4-benzothiadiazine 1,1-dioxide] as the compound, how does the LD50 at 168 h [7, 17] read?
The LD50 at 168 h was 242 mg/kg.

What about the LD50 at 168 h [7, 18] of the same compound?
Its LD50 at 168 h is 267 mg/kg.

What about the LD50 at 168 h [7, 19] of the same compound?
Its LD50 at 168 h is > 5000 mg/kg.

And the LD50 at 168 h [7, 20]?
Its LD50 at 168 h is > 5000 mg/kg.

And the LD50 at 168 h [7, 21]?
The LD50 at 168 h was > 2410 mg/kg.

And the LD50 at 168 h [7, 22]?
The LD50 at 168 h was > 2410 mg/kg.

What about the Blood pressure [1, 10] of the same compound?
Its Blood pressure is 172 mm Hg.

And the Blood pressure ([1]; day 0, prior to dosing (0))?
The Blood pressure was 172 mm Hg.

And the Blood pressure [1, 11]?
Its Blood pressure is 155 mm Hg.

What about the Blood pressure ([1]; day 2, prior to dosing (0)) of the same compound?
The Blood pressure was 167 mm Hg.

And the Blood pressure [1, 12]?
The Blood pressure was 151 mm Hg.

What about the Blood pressure ([1]; day 4, prior to dosing (0)) of the same compound?
Its Blood pressure is 158 mm Hg.

And the Blood pressure [1, 13]?
The Blood pressure was 131 mm Hg.

What about the Blood pressure ([1]; day 6, prior to dosing (0)) of the same compound?
The Blood pressure was 144 mm Hg.

And the Blood pressure [1, 14]?
The Blood pressure was 135 mm Hg.

And the Blood pressure ([1]; day 8, prior to dosing (0))?
The Blood pressure was 143 mm Hg.

What about the Blood pressure [1, 15] of the same compound?
Its Blood pressure is 139 mm Hg.

And the Blood pressure [1, 16]?
Its Blood pressure is 165 mm Hg.

And the LD50 at 168 h [8, 17]?
Its LD50 at 168 h is 740 mg/kg.

What about the LD50 at 168 h [8, 18] of the same compound?
The LD50 at 168 h was 551 mg/kg.

And the LD50 at 168 h [8, 19]?
The LD50 at 168 h was > 5000 mg/kg.

What about the LD50 at 168 h [8, 20] of the same compound?
Its LD50 at 168 h is > 5000 mg/kg.

And the LD50 at 168 h [8, 21]?
The LD50 at 168 h was > 1000 mg/kg.

And the LD50 at 168 h [8, 22]?
The LD50 at 168 h was > 1000 mg/kg.

And the Blood glucose (Male Wistar rats [4]; 0 hr (prior to dosing))?
The Blood glucose was 94 mg/dL.

And the Blood glucose (Male Wistar rats [4]; 1 hr)?
Its Blood glucose is 102 mg/dL.

And the Blood glucose (Male Wistar rats [4]; 3 hr)?
The Blood glucose was 103 mg/dL.

What about the Blood glucose (Male Wistar rats [4]; 6 hr) of the same compound?
Its Blood glucose is 111 mg/dL.

And the “Effect on blood glucose level” value (Male Wistar rats [4]; rats)?
The value was “substantially no effect”.

What about the “Blood glucose levels after application of glucose, compared with control group” value [9] of the same compound?
Its value is “same glucose tolerance pattern as the control group”.

What about the Glucose tolerance [9] of the same compound?
The Glucose tolerance was “no abnormality was observed in glucose tolerance”.

And the Blood glucose (Male Wistar rats [5]; 0 hr (prior to dosing))?
Its Blood glucose is 105 mg/dL.

And the Blood glucose (Male Wistar rats [5]; 1 hr)?
Its Blood glucose is 105 mg/dL.

What about the Blood glucose (Male Wistar rats [5]; 3 hr) of the same compound?
The Blood glucose was 107 mg/dL.

What about the Blood glucose (Male Wistar rats [5]; 6 hr) of the same compound?
Its Blood glucose is 103 mg/dL.

What about the Blood glucose (Male Wistar rats [5]; 10 hr) of the same compound?
Its Blood glucose is 110 mg/dL.

And the “Effect on blood glucose level” value (Male Wistar rats [5]; rats)?
The value was “substantially no effect”.

And the “Change in Na+/K+” value (Male Wistar rats [6])?
The value was “some increase”.

And the “Change in electrolyte excretion” value (Male Wistar rats [6])?
The value was “no significant change”.

What about the “Change in urine volume” value (Male Wistar rats [6]) of the same compound?
Its value is “no significant change”.

What about the Urine volume (Male Wistar rats [6]; 5 hours) of the same compound?
Its Urine volume is 3.58 mL.

And the Cl- (Male Wistar rats [6])?
The Cl- was 0.90 mEq.

What about the “K+” value (Male Wistar rats [6]) of the same compound?
Its value is 0.40 mEq.

And the “Na+” value (Male Wistar rats [6])?
Its value is 0.78 mEq.

What about the “Na+/K+” value (Male Wistar rats [6]) of the same compound?
The value was 1.93.
